# Data as given in publication PMC2667100 (Molecular and cellular endocrinology, 2008).
# Where a chain is given by its changes, count along the chain named. Where two headings read alike, the source gives them in different places.
# Experiments:
# [1] = test system: MCF-7 Tet-off 3β-HSD1 aromatase cells; experiment: Inhibition of DHEA-stimulated proliferation; assay type: cell-based, human; settings: for fold higher affinity, 3β-HSD1 cells relative to 3β-HSD2 cells (IC50): ratio of proliferation IC50 values
# MCF-7 cells = experiment: Proliferation of MCF-7 cells in the absence of DHEA substrate; assay type: cell-based, human
# [2] = molecular target: T1, purified human P195R-2 mutant of 3β-HSD2 (Homo sapiens, UniProt P26439, P195R); experiment: Substrate and cofactor kinetics of the 3β-HSD activity; assay type: biochemical
# T1 sequence (P26439 1-372 P195R): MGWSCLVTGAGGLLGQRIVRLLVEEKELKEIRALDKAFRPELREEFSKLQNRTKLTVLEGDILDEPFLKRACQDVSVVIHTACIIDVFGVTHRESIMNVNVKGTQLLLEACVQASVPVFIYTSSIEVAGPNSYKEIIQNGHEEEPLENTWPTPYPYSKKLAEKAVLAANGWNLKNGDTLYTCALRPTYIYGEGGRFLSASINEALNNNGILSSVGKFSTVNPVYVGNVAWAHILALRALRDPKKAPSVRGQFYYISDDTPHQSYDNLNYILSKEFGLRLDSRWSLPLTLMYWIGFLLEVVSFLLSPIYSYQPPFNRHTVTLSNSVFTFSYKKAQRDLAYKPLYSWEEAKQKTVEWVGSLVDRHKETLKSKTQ
# purified human 3β-HSD1 [3] = molecular target: T2, purified human 3β-HSD1 (Homo sapiens, UniProt P14060); experiment: as above; assay type: biochemical; settings: 27°C, pH 7.4
# purified human 3β-HSD2 [4] = molecular target: T3, purified human 3β-HSD2 (Homo sapiens, UniProt P26439); experiment: as above; assay type: biochemical; settings: 27°C, pH 7.4
# T3 sequence (P26439 1-372): T1 sequence (P26439 1-372 P195R) with R195P
# purified human 3β-HSD1 [5] = molecular target: T2, purified human 3β-HSD1; experiment: Inhibition kinetics of purified enzyme; assay type: biochemical
# purified human 3β-HSD2 [6] = molecular target: T3, purified human 3β-HSD2; experiment: Inhibition kinetics of purified enzyme; assay type: biochemical; settings: for mode of inhibition: Dixon analysis
# [7] = molecular target: T1, purified human P195R-2 mutant of 3β-HSD2; experiment: Inhibition kinetics of purified enzyme; assay type: biochemical
# [8] = test system: MCF-7 Tet-off 3β-HSD2 aromatase cells; experiment: Inhibition of DHEA-stimulated proliferation; assay type: cell-based, human; settings: DHEA 5 nM, concentration-dependent
# [9] = test system: MCF-7 Tet-off 3β-HSD1 aromatase cells; experiment: Stimulation of proliferation; assay type: cell-based, human; settings: for stimulation of cell growth: no dox; for EC50: Homo sapiens, MCF7, 240 h, read-out: EC50, stimulation of growth
# [10] = test system: MCF-7 Tet-off 3β-HSD2 aromatase cells; experiment: Stimulation of proliferation; assay type: cell-based, human; settings: for stimulation of cell growth: no dox; for EC50: Homo sapiens, MCF7, 240 h, read-out: EC50, stimulation of growth
# purified human 3β-HSD1 [11] = molecular target: T2, purified human 3β-HSD1; experiment: Substrate and cofactor kinetics of the isomerase activity; assay type: biochemical; settings: 27°C, pH 7.4
# [12] = molecular target: T1, purified human P195R-2 mutant of 3β-HSD2; experiment: as above; assay type: biochemical; settings: 27°C, pH 7.4
# purified human 3β-HSD2 [13] = molecular target: T3, purified human 3β-HSD2; experiment: as above; assay type: biochemical; settings: 27°C, pH 7.4
# [14] = test system: MCF-7 Tet-off 3β-HSD1 and 3β-HSD2 aromatase cells; experiment: DHEA stimulation of proliferation, mean over both recombinant cell lines; assay type: cell-based; settings: Homo sapiens, MCF7, read-out: mean EC50, stimulation of proliferation
# [15] = read-out: Km, 3β-HSD cofactor, NAD+ 10–200 μM, DHEA 100 μM
# [16] = DHEA 8.0 or 20.0 μM, NAD+ 0.2 mM, 27 °C, pH 7.4
# [17] = 5-androstene-3,17-dione 20–100 μM, NADH 0.05 mM
# [18] = NADH 0–50 μM, 5-androstene-3,17-dione 100 μM
# [19] = read-out: Km, isomerase cofactor (allosteric activator), NADH 0–50 μM, 5-androstene-3,17-dione 100 μM
# T2 sequence (P14060 whole entry): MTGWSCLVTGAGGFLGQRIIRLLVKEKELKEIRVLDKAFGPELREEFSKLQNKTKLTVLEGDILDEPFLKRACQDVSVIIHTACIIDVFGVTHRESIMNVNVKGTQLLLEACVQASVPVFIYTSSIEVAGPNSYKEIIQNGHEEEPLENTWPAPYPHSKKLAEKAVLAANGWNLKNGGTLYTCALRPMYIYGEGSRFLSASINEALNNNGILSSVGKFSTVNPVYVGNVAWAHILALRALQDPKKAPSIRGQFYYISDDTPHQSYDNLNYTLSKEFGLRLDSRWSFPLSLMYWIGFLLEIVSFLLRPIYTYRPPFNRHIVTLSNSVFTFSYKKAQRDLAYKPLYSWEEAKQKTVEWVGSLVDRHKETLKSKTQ
molecule,measurement,setting,value
C[C@]1(O)CC[C@H]2[C@@H]3CC[C@@]45O[C@]4(C)C(O)=C(C#N)C[C@]5(C)[C@H]3CC[C@@]21C [epostane],"fold higher affinity, 3β-HSD1 cells relative to 3β-HSD2 cells (IC50)",[1],12 fold
same,ER-agonist activity (stimulation of proliferation),MCF-7 cells,none of these compounds has ER-agonist activity
NC(=O)c1ccc[n+]([C@@H]2O[C@H](COP(=O)([O-])OP(=O)(O)OC[C@H]3O[C@@H](n4cnc5c(N)ncnc54)[C@H](O)[C@@H]3O)[C@@H](O)[C@H]2O)c1 [NAD^+],"kcat, 3β-HSD cofactor","[2]; NAD+ 10–200 μM, DHEA 100 μM, 27°C, pH 7.4",9.2 ± 0.3 min⁻¹
same,Km,"[2]; read-out: Km, 3β-HSD cofactor, NAD+ 10–200 μM, DHEA 100 μM, 27°C, pH 7.4",56.4 ± 3.2 µM
same,"kcat, 3β-HSD cofactor","purified human 3β-HSD1 [3]; NAD+ 10–200 μM, DHEA 100 μM",3.5 ± 0.2 min⁻¹
same,Km,purified human 3β-HSD1 [3]; [15],34.1 ± 1.7 µM
same,"kcat, 3β-HSD cofactor","purified human 3β-HSD2 [4]; NAD+ 10–200 μM, DHEA 100 μM",7.1 ± 0.6 min⁻¹
same,Km,purified human 3β-HSD2 [4]; [15],86.3 ± 5.6 µM
CC(=O)OC1CCC2C3CCC45OC4C(O)=C(C#N)CC5(C)C3CCC12C (stereo not drawn) [17β-acetoxy-trilostane],Ki,"purified human 3β-HSD1 [5]; DHEA 4.0 or 8.0 μM, NAD+ 0.2 mM, 27 °C, pH 7.4",430 ± 30 nM
same,Ki,purified human 3β-HSD2 [6]; [16],1590 ± 100 nM
same,mode of inhibition,purified human 3β-HSD2 [6],non-competitive
same,Ki,[7]; [16],390 ± 30 nM
4-hydroxy-tamoxifen,effect on DHEA-stimulated proliferation,"[1]; DHEA 5 nM, concentration-dependent",decreases the DHEA-stimulated proliferation
same,effect on DHEA-stimulated proliferation,[8],decreases the DHEA-stimulated proliferation
"C[C@]12CC[C@H](OS(=O)(=O)O)CC1=CC[C@@H]1[C@@H]2CC[C@]2(C)C(=O)CC[C@@H]12 [DHEA-S, dehydroepiandrosterone-sulfate]",stimulation of cell growth,[9],stimulated
same,stimulation of cell growth,[10],stimulated
"C[C@]12CC[C@H]3[C@@H](CC[C@@]45O[C@@H]4C(O)=C(C#N)C[C@]35C)[C@@H]1CC[C@@H]2O [trilostane, 2α-cyano-4α,5α-epoxy-17β-ol-androstane-3-one]",Ki,purified human 3β-HSD1 [5],100 ± 10 nM
same,fold higher affinity for 3β-HSD1 than 3β-HSD2 (Ki),purified human 3β-HSD1 [5]; purified enzymes,16 fold
same,"fold higher affinity, 3β-HSD1 cells relative to 3β-HSD2 cells (IC50)",[1],16 fold
same,Ki,purified human 3β-HSD2 [6],1600 ± 100 nM
same,mode of inhibition,purified human 3β-HSD2 [6],noncompetitively
same,Ki,[7],190 ± 20 nM
same,ER-agonist activity (stimulation of proliferation),MCF-7 cells,none of these compounds has ER-agonist activity
"C[C@]12CCC(=O)C=C1CC[C@@H]1[C@@H]2CC[C@]2(C)C(=O)CC[C@@H]12 [Androstenedione, androstenedione]",stimulation of cell growth,[9],stimulates the proliferation
same,stimulation of cell growth,[10],stimulates the proliferation
N#Cc1ccc(C(c2ccc(C#N)cc2)n2cncn2)cc1 [letrozole],ER-agonist activity (stimulation of proliferation),MCF-7 cells,none of these compounds has ER-agonist activity
"C[C@]12CCC(=O)CC1=CC[C@@H]1[C@@H]2CC[C@]2(C)C(=O)CC[C@@H]12 [5-androstene-3,17-dione]","kcat, isomerase substrate",purified human 3β-HSD1 [11]; [17],50.2 ± 2.0 min⁻¹
same,"kcat, isomerase substrate",[12]; [17],131 ± 9.8 min⁻¹
same,Km,"[12]; read-out: Km, isomerase substrate, 5-androstene-3,17-dione 20–100 μM, NADH 0.05 mM",119 ± 5 µM
same,"kcat, isomerase substrate",purified human 3β-HSD2 [13]; [17],81.4 ± 6.0 min⁻¹
"C[C@]12CC[C@H](O)CC1=CC[C@@H]1[C@@H]2CC[C@]2(C)C(=O)CC[C@@H]12 [DHEA, Dehydroepiandrosterone]","kcat, 3β-HSD substrate","[2]; DHEA 2–100 μM, NAD+ 0.2 mM, 27°C, pH 7.4",9.5 ± 0.7 min⁻¹
same,"fold higher affinity for substrate, P195R-2 vs wild-type 3β-HSD2 (Km)",[2]; ratio of Km values,3.6 fold
same,Km,"[2]; read-out: Km, 3β-HSD substrate, DHEA 2–100 μM, NAD+ 0.2 mM, 27°C, pH 7.4",13.3 ± 2.5 µM
same,stimulation of cell growth,[9],stimulated
same,"kcat, 3β-HSD substrate","purified human 3β-HSD1 [3]; DHEA 2–100 μM, NAD+ 0.2 mM",3.3 ± 0.2 min⁻¹
same,"kcat, 3β-HSD substrate","purified human 3β-HSD2 [4]; DHEA 2–100 μM, NAD+ 0.2 mM",6.9 ± 0.5 min⁻¹
same,stimulation of cell growth,[10],stimulated
same,EC50,[14],5 nM
C[C@]12CC[C@@H]3c4ccc(O)cc4CC[C@H]3[C@@H]1CCC2=O [estrone],EC50,[9],0.39 nM
same,EC50,[10],0.34 nM
C[C@]12CC[C@@H]3c4ccc(O)cc4CC[C@H]3[C@@H]1CC[C@@H]2O [estradiol],EC50,[9],0.24 nM
same,EC50,[10],0.32 nM
NC(=O)C1=CN([C@@H]2O[C@H](COP(=O)(O)OP(=O)(O)OC[C@H]3O[C@@H](n4cnc5c(N)ncnc54)[C@H](O)[C@@H]3O)[C@@H](O)[C@H]2O)C=CC1 [NADH],"kcat, isomerase cofactor (allosteric activator)",purified human 3β-HSD1 [11]; [18],45.0 ± 1.8 min⁻¹
same,Km,purified human 3β-HSD1 [11]; [19],4.6 ± 0.2 µM
same,"kcat, isomerase cofactor (allosteric activator)",[12]; [18],89.5 ± 5.8 min⁻¹
same,Km,[12]; [19],10 ± 0.2 µM
same,"kcat, isomerase cofactor (allosteric activator)",purified human 3β-HSD2 [13]; [18],99.1 ± 6.4 min⁻¹
same,Km,purified human 3β-HSD2 [13]; [19],12.6 ± 0.9 µM
